{"source": "patent US8435990B2", "about": "“Dihydropyrimidone amides as P2X7 modulators” (Roche Palo Alto LLC, priority 2009, dated 2013)", "note": "pIC50: −log10 of the molar value."}
{"target": "T1, human P2X7 (Homo sapiens, UniProt Q99572)", "T1 construct": "1321N1 cells stably expressing the full length human P2X7 gene (1321N1-hP2X7)", "T1 sequence (Q99572 1-595)": "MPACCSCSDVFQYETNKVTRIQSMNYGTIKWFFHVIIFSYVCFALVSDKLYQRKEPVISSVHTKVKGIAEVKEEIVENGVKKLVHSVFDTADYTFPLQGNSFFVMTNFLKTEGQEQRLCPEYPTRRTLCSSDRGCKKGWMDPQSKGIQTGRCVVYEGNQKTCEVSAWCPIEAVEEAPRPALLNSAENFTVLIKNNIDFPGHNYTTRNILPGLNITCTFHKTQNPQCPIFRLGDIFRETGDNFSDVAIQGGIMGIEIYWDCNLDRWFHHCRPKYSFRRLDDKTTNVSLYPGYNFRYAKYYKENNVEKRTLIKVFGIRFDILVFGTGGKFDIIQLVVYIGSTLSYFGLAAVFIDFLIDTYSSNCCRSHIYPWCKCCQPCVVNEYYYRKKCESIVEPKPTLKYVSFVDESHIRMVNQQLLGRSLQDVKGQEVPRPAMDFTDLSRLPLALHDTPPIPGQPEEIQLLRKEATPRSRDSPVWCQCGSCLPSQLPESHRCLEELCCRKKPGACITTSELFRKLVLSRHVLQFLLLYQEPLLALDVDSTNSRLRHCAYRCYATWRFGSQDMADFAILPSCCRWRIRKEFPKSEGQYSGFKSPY", "test": "P2X7 modulator pIC50 of Table 1 (assay not given; Intracellular Calcium Flux (FLIPR) Assay assumed)", "format": "cell-based", "description": "Intracellular Calcium Flux (FLIPR) Assay\nStock solutions of compounds were prepared from powders as a 10 mM DMSO stock solution. These solutions were stored at RT during the two week period of these experiments to prevent freeze-thaw of the DMSO stocks. The DMSO stocks were added to the appropriate assay buffer at a concentration of 10 μM, and then diluted serially to the final concentrations that were tested. No observable precipitate was formed at any time during this process. The aqueous solutions of compounds as well as ATP (Sigma A7699) and BzATP (Sigma B6396) were prepared fresh for each day of experiment.\n1321N1 cells stably expressing the full length human P2X7 gene (1321N1-hP2X7) and HEK293 cells stably expressing the full length rat P2X7 gene (HEK293-rP2X7) were obtained from the Roche Cell Culture Facility. 1321N1-hP2X7 cells were grown in Dulbecco's Modified Eagle's Medium (DMEM) high glucose supplemented with 10% FBS and 250 μg/mL G418. HEK293-rP2X7 cells were grown in DMEM/F-12 supplemented with 10% FBS, 1 mM CaCl2, 2 mM MgCl2, 2 mM L-Glutamine and 500 μg/ml G418. Cells were split such that they never became >70% confluent.\nOn the day prior to the experiment, 1321N1-hP2X7 or HEK293-rP2X7 cells were released into suspension with calcium-free PBS+Versene and washed by centrifugation with calcium-free PBS to remove the Versene. Cells were resuspended in growth medium at a density of 2.5×10^5 cells/mL and seeded into black walled, clear bottom 96 well plates (50,000 cells/well) approximately 18 hr prior to intracellular calcium flux experiments.\nOn the day of the experiment, plates were washed with FLIPR buffer (calcium- and magnesium-free Hank's Balanced Salt Solution (HBSS) supplemented with 10 mM Hepes, 2.5 mM probenecid and 2 mM calcium chloride) using a BIO-TEK 96 channel plate washer and incubated with […] fluo-3 dye at 37° C. for one hr. The dye was then removed by plate washing and the cells were allowed to equilibrate for 20 min at room temperature with antagonist or vehicle (FLIPR buffer). Agonist (100 μM BzATP final concentration for hP2X7; 5μM BzATP final concentration or rP2X7) was added online with the FLIPR and fluorescence measurements made at 1 sec intervals for 60 sec followed by 3 sec intervals for a further 4 min (5 min total). A final addition of 5 μM ionomycin was made and the maximal BzATP-evoked fluorescence normalized to the maximal ionomycin-evoked fluorescence."}
{"smiles": "Cc1cc(Cl)c(-n2ncccc2=O)cc1NC(=O)C1=CN(C)C(=O)N[C@H]1c1ccc(F)cc1", "note": "[Compound 63, (S)-4-(4-Fluoro-phenyl)-1-methyl-2-oxo-1,2,3,4-tetrahydro-pyrimidine-5-carboxylic acid [4-chloro-2-methyl-5-(6-oxo-6H-pyridazin-1-yl)-phenyl]-amide]", "pIC50": 7.29}
{"smiles": "Cc1c(NC(=O)C2=CN(C)C(=O)N[C@H]2c2ccc(F)cc2)cccc1-c1ccn[nH]1", "note": "[Compound 23, (S)-4-(4-Fluoro-phenyl)-1-methyl-2-oxo-1,2,3,4-tetrahydro-pyrimidine-5-carboxylic acid [2-methyl-3-(2H-pyrazol-3-yl)-phenyl]-amide]", "pIC50": 6.74}
{"smiles": "Cc1cc(F)c(-n2ncccc2=O)cc1NC(=O)C1=CN(C)C(=O)N[C@H]1c1ccc(F)cc1", "note": "[Compound 69, (S)-4-(4-Fluoro-phenyl)-1-methyl-2-oxo-1,2,3,4-tetrahydro-pyrimidine-5-carboxylic acid [4-fluoro-2-methyl-5-(6-oxo-6H-pyridazin-1-yl)-phenyl]-amide]", "pIC50": 7.71}
{"smiles": "CN1C=C(C(=O)Nc2cc(-n3ncccc3=O)ccc2F)[C@H](c2ccc(F)cc2)NC1=O", "note": "[Compound 74, (S)-4-(4-Fluoro-phenyl)-1-methyl-2-oxo-1,2,3,4-tetrahydro-pyrimidine-5-carboxylic acid [2-fluoro-5-(6-oxo-6H-pyridazin-1-yl)-phenyl]-amide]", "pIC50": 7.00}
{"smiles": "CCn1c(=O)cnn(-c2ccc(C)c(NC(=O)C3=CN(C)C(=O)N[C@H]3c3ccc(F)cc3)c2)c1=O", "note": "[Compound 64, (S)-4-(4-Fluoro-phenyl)-1-methyl-2-oxo-1,2,3,4-tetrahydro-pyrimidine-5-carboxylic acid [5-(4-ethyl-3,5-dioxo-4,5-dihydro-3H-[1,2,4]triazin-2-yl)-2-methyl-phenyl]-amide]", "pIC50": 7.78}
{"smiles": "Cc1cc(-c2ccc(C)c(NC(=O)C3=CNC(=O)N[C@@H]3c3ccc(F)cc3)c2)n[nH]1", "note": "[Compound 3, (R)-4-(4-Fluoro-phenyl)-2-oxo-1,2,3,4-tetrahydro-pyrimidine-5-carboxylic acid [2-methyl-5-(5-methyl-1H-pyrazol-3-yl)-phenyl]-amide]", "pIC50": 6.76}
{"smiles": "COc1cc(C)c(NC(=O)C2=CNC(=O)N(C)C2c2ccc(F)cc2)cc1OC", "note": "(stereo not shown) [Compound 13, 4-(4-Fluoro-phenyl)-3-methyl-2-oxo-1,2,3,4-tetrahydro-pyrimidine-5-carboxylic acid (4,5-dimethoxy-2-methyl-phenyl)-amide]", "pIC50": 7.07}
{"smiles": "Cc1ccc(=O)n(-c2ccc(C)c(NC(=O)C3=CN(C)C(=O)N[C@H]3c3ccc(F)cc3)c2)n1", "note": "[Compound 27, (S)-4-(4-Fluoro-phenyl)-1-methyl-2-oxo-1,2,3,4-tetrahydro-pyrimidine-5-carboxylic acid [2-methyl-5-(3-methyl-6-oxo-6H-pyridazin-1-yl)-phenyl]-amide]", "pIC50": 7.39}
{"smiles": "CN1C=C(C(=O)Nc2cc(-c3ccnn(C)c3=O)ccc2F)[C@H](c2ccc(F)cc2)NC1=O", "note": "[Compound 72, (S)-4-(4-Fluoro-phenyl)-1-methyl-2-oxo-1,2,3,4-tetrahydro-pyrimidine-5-carboxylic acid [2-fluoro-5-(2-methyl-3-oxo-2,3-dihydro-pyridazin-4-yl)-phenyl]-amide]", "pIC50": 7.80}
{"smiles": "Cc1cc(Cl)c(OCCO)cc1NC(=O)C1=CN(C)C(=O)N[C@H]1c1cccc(F)c1", "note": "[Compound 30, (S)-4-(3-Fluoro-phenyl)-1-methyl-2-oxo-1,2,3,4-tetrahydro-pyrimidine-5-carboxylic acid [4-chloro-5-(2-hydroxy-ethoxy)-2-methyl-phenyl]-amide]", "pIC50": 7.70}
{"smiles": "Cc1ccc(-c2ccc(=O)[nH]n2)cc1NC(=O)C1=CN(C)C(=O)N[C@H]1c1ccc(F)cc1", "note": "[Compound 41, (S)-4-(4-Fluoro-phenyl)-1-methyl-2-oxo-1,2,3,4-tetrahydro-pyrimidine-5-carboxylic acid [2-methyl-5-(6-oxo-1,6-dihydro-pyridazin-3-yl)-phenyl]-amide]", "pIC50": 7.54}
{"smiles": "COc1cc(C)c(NC(=O)C2=CN(C)C(=O)NC2c2ccc(F)cc2)cc1OC", "note": "(stereo not shown) [Compound 2, 4-(4-Fluoro-phenyl)-1-methyl-2-oxo-1,2,3,4-tetrahydro-pyrimidine-5-carboxylic acid (4,5-dimethoxy-2-methyl-phenyl)-amide]", "pIC50": 7.38}
{"smiles": "COc1cc(C)c(NC(=O)C2=CN(C)C(=O)N(C)C2c2ccc(F)cc2)cc1OC", "note": "(stereo not shown) [Compound 9, 4-(4-Fluoro-phenyl)-1,3-dimethyl-2-oxo-1,2,3,4-tetrahydro-pyrimidine-5-carboxylic acid (4,5-dimethoxy-2-methyl-phenyl)-amide]", "pIC50": 6.71}
{"smiles": "Cc1ccc2ncccc2c1NC(=O)C1=CN(C)C(=O)N[C@H]1c1ccc(F)cc1", "note": "[Compound 11, (S)-4-(4-Fluoro-phenyl)-1-methyl-2-oxo-1,2,3,4-tetrahydro-pyrimidine-5-carboxylic acid (6-methyl-quinolin-5-yl)-amide]", "pIC50": 6.92}
{"smiles": "Cc1ccc(-n2cccc(C)c2=O)cc1NC(=O)C1=CN(C)C(=O)N[C@H]1c1ccc(F)cc1", "note": "[Compound 50, (S)-4-(4-Fluoro-phenyl)-1-methyl-2-oxo-1,2,3,4-tetrahydro-pyrimidine-5-carboxylic acid [2-methyl-5-(3-methyl-2-oxo-2H-pyridin-1-yl)-phenyl]-amide]", "pIC50": 7.26}
{"smiles": "CCN1C=C(C(=O)Nc2cc(OCCO)c(Cl)cc2C)[C@H](c2ccc(F)cc2)NC1=O", "note": "[Compound 17, (S)-1-Ethyl-4-(4-fluoro-phenyl)-2-oxo-1,2,3,4-tetrahydro-pyrimidine-5-carboxylic acid [4-chloro-5-(2-hydroxy-ethoxy)-2-methyl-phenyl]-amide]", "pIC50": 7.62}
{"smiles": "CN1C=C(C(=O)Nc2cccc3c(=O)n(C)ccc23)[C@H](c2ccc(F)cc2)NC1=O", "note": "[Compound 51, (S)-4-(4-Fluoro-phenyl)-1-methyl-2-oxo-1,2,3,4-tetrahydro-pyrimidine-5-carboxylic acid (2-methyl-1-oxo-1,2-dihydro-isoquinolin-5-yl)-amide]", "pIC50": 7.20}
{"smiles": "Cc1cc2cnn(C)c2cc1NC(=O)C1=CN(C)C(=O)N[C@H]1c1ccc(F)cc1", "note": "[Compound 46]", "pIC50": 7.92}
{"smiles": "COc1cc(C)c(NC(=O)C2=CNC(=O)N[C@@H]2c2ccc(F)cc2)cc1OC", "note": "[Compound 10, (R)-4-(4-Fluoro-phenyl)-2-oxo-1,2,3,4-tetrahydro-pyrimidine-5-carboxylic acid (4,5-dimethoxy-2-methyl-phenyl)-amide]", "pIC50": 6.45}
{"smiles": "COc1cc(C)c(NC(=O)C2=CN(CCO)C(=O)NC2c2ccc(F)cc2)cc1OC", "note": "(stereo not shown) [Compound 12, 4-(4-Fluoro-phenyl)-1-(2-hydroxy-ethyl)-2-oxo-1,2,3,4-tetrahydro-pyrimidine-5-carboxylic acid (4,5-dimethoxy-2-methyl-phenyl)-amide]", "pIC50": 6.96}
{"smiles": "COc1ccc(-c2ccc(C)c(NC(=O)C3=CN(C)C(=O)N[C@H]3c3ccc(F)cc3)c2)nn1", "note": "[Compound 55, (S)-4-(4-Fluoro-phenyl)-1-methyl-2-oxo-1,2,3,4-tetrahydro-pyrimidine-5-carboxylic acid [5-(6-methoxy-pyridazin-3-yl)-2-methyl-phenyl]-amide]", "pIC50": 7.96}
{"smiles": "Cc1ccc(-n2ncc(=O)n(C)c2=O)cc1NC(=O)C1=CN(C)C(=O)N[C@H]1c1ccc(F)cc1", "note": "[Compound 35, (S)-4-(4-Fluoro-phenyl)-1-methyl-2-oxo-1,2,3,4-tetrahydro-pyrimidine-5-carboxylic acid [2-methyl-5-(4-methyl-3,5-dioxo-4,5-dihydro-3H-[1,2,4]triazin-2-yl)-phenyl]-amide]", "pIC50": 6.98}
